US20240294569A1, “MODULATORS OF SORTILIN ACTIVITY” (Insusense ApS, priority 2021, published 2024)
Peptide text beside a SMILES is read from it.

Molecular target: T1, hSortilin (Homo sapiens, UniProt Q99523)
T1 sequence (Q99523 78-831): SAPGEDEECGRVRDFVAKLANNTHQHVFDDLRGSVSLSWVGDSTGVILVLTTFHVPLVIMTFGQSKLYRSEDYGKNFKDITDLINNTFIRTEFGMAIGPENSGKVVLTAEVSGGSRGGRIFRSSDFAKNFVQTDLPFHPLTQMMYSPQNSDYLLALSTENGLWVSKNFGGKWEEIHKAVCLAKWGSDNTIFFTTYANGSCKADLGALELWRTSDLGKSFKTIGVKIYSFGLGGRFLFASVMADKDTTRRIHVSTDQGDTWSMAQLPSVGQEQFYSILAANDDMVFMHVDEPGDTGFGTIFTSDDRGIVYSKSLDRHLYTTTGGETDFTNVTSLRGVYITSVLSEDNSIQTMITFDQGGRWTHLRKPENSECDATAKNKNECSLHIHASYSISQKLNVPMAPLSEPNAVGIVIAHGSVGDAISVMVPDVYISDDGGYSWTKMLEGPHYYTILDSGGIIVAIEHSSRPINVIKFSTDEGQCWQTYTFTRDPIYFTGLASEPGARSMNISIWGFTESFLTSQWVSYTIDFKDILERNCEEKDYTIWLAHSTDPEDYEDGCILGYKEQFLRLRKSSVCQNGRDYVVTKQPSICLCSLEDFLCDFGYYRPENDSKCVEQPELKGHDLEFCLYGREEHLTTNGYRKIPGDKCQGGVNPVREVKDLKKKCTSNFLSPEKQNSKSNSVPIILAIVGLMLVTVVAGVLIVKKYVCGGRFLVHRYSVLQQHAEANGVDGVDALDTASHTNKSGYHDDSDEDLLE
Test: Neurotensin scintillation proximity assay (displacement of [3H]-neurotensin binding)
Conditions: displacement of 5 nM [3H]-neurotensin from 150 nM 6his-Sortilin; average of at least 2 determinations; read-out: IC50 [3H]Neurotensin SPA
Protocol: The data of exemplified compounds of the invention tested in a Neurotensin (NTS) scintillation proximity assay (SPA). NTS, which is a 13 amino acid neuropeptide, is a sortilin ligand. The IC50 is a measure of the amount of the compound required to inhibit the binding of NTS to sortilin by 50%.
Compound affinity was determined by measuring the displacement of [^3H]-neurotensin binding to hSortilin in SPA format. Total volume of 40 μl in 50 mM HEPES pH 7.4 assay buffer containing 100 mM NaCl, 2.0 mM CaCl2, 0.1% BSA and 0.1% Tween-20. Compound pre-incubation for 30 minutes at room temperature with 150 nM of 6his-Sortilin before 5 nM [3H]-Neurotensin and Ni chelate imaging beads (Perkin Elmer) were added, after 6 hours the plate was read on a ViewLux with 360 s exposure time. Dose-response evaluation of compounds was performed with 8 concentrations of drugs (covering 3 decades). IC50 values were calculated by nonlinear regression using the sigmoid concentration-response (variable slope) using CDD Vault software. All values reported are average of at least 2 determinations.

Row | Molecule | IC50
1 | CC[C@H](C)[C@H](NC(=O)[C@H](C)NC(=O)[C@@H]1CCCN1)C(=O)N[C@@H](CCC(C)(C)C)C(=O)O [Example 17, (2S)-5,5-Dimethyl-2-((3S)-3-methyl-2-((S)-2-((S)-pyrrolidine-2-carboxamido)propan amido)pentanamido) hexanoic acid] (HELM PEPTIDE1{P.A.I.[CC(C)(C)CC[C@H](N[*:1])C(=O)O]}$$$$V2.0) | 70 nM
2 | CC[C@H](C)[C@H](NC(=O)[C@H](Cc1ccc(O)cc1)NC(=O)[C@H]1CNCCN1)C(=O)N[C@@H](CCC(C)(C)C)C(=O)O [Example 18, (S)-2-((2S,3S)-2-((S)-3-(4-Hydroxyphenyl)-2-((R)-piperazine-2-carboxamido)propan amido)-3-methylpentanamido)-5,5-dimethylhexanoic acid] (HELM PEPTIDE1{[O=C([C@H]1CNCCN1)[*:2]].Y.I.[CC(C)(C)CC[C@H](N[*:1])C(=O)O]}$$$$V2.0) | 110 nM
3 | CC[C@H](C)[C@H](NC(=O)[C@H](Cc1ccc(O)cc1)NC(=O)[C@@H]1CNCCN1)C(=O)N[C@@H](CCC(C)(C)C)C(=O)O [Example 19, (S)-2-((2S,3S)-2-((S)-3-(4-Hydroxyphenyl)-2-((S)-piperazine-2-carboxamido)propan amido)-3-methylpentanamido)-5,5-dimethylhexanoic acid] (HELM PEPTIDE1{[O=C([C@@H]1CNCCN1)[*:2]].Y.I.[CC(C)(C)CC[C@H](N[*:1])C(=O)O]}$$$$V2.0) | 100 nM
4 | CC[C@H](C)[C@H](NC(=O)[C@H](Cc1ccc(O)cc1)NC(=O)[C@H]1CCNC1)C(=O)N[C@@H](CCC(C)(C)C)C(=O)O [Example 20, (S)-2-((2S,3S)-2-((S)-3-(4-Hydroxyphenyl)-2-((S)-pyrrolidine-3-carboxamido)propan amido)-3-methylpentanamido)-5,5-dimethylhexanoic acid] | 150 nM
5 | CC[C@H](C)[C@H](NC(=O)[C@H](Cc1ccc(O)cc1)NC(=O)[C@@H]1CCNC1)C(=O)N[C@@H](CCC(C)(C)C)C(=O)O [Example 21, (S)-2-((2S,3S)-2-((S)-3-(4-Hydroxyphenyl)-2-((R)-pyrrolidine-3-carboxamido)propan amido)-3-methylpentanamido)-5,5-dimethylhexanoic acid] | 180 nM
6 | CC[C@H](C)[C@H](NC(=O)[C@H](Cc1ccc(O)cc1)NC(=O)[C@@H]1CNCCO1)C(=O)N[C@@H](CCC(C)(C)C)C(=O)O [Example 22, (S)-2-((2S,3S)-2-((S)-3-(4-Hydroxyphenyl)-2-((S)-morpholine-2-carboxamido)propan amido)-3-methylpentanamido)-5,5-dimethylhexanoic acid] | 70 nM
7 | CC[C@H](C)[C@H](NC(=O)[C@H](Cc1ccc(O)cc1)NC(=O)[C@H]1COCCN1)C(=O)N[C@@H](CCC(C)(C)C)C(=O)O [Example 23, (S)-2-((2S,3S)-2-((S)-3-(4-Hydroxyphenyl)-2-((R)-morpholine-3-carboxamido)propan amido)-3-methylpentanamido)-5,5-dimethylhexanoic acid] | 100 nM
8 | CC[C@H](C)[C@H](NC(=O)[C@H](Cc1ccc(O)cc1)NC(=O)[C@H]1CN(C(C)=O)CCO1)C(=O)N[C@@H](CCC(C)(C)C)C(=O)O [Example 25, (S)-2-((2S,3S)-2-((S)-2-((R)-4-Acetylmorpholine-2-carboxamido)-3-(4-hydroxyphenyl)propanamido)-3-methylpentanamido)-5,5-dimethylhexanoic acid] | 140 nM
9 | CC[C@H](C)[C@H](NC(=O)[C@H](Cc1ccc(O)cc1)NC(C)=O)C(=O)N[C@@H](CCC(C)(C)C)C(=O)O [Example 28, (S)-2-((2S,3S)-2-((S)-2-Acetamido-3-(4-hydroxyphenyl)propanamido)-3-methylpentanamido)-5,5-dimethylhexanoic acid] | 190 nM
10 | CC[C@H](C)[C@H](NC(=O)[C@H](Cc1ccc(O)cc1)NC(=O)[C@H]1CNCCO1)C(=O)N[C@@H](CCC(C)(C)C)C(=O)O [Example 30, (S)-2-((2S,3S)-2-((S)-3-(4-Hydroxyphenyl)-2-((R)-morpholine-2-carboxamido)propan amido)-3-methylpentanamido)-5,5-dimethylhexanoic acid] | 90 nM
11 | Cn1cncc1C[C@H](NC(=O)[C@H](Cc1ccc(O)cc1)NC(=O)[C@@H]1CCCN1)C(=O)N[C@@H](CCC(C)(C)C)C(=O)O [Example 32, (S)-2-((S)-2-((S)-3-(4-Hydroxyphenyl)-2-((S)-pyrrolidine-2-carboxamido)propan amido)-3-(1-methyl-1H-imidazol-5-yl)propanamido)-5,5-dimethylhexanoic acid.di-formic acid] (HELM PEPTIDE1{P.Y.[Cn1cncc1C[C@H](N[*:1])C(=O)[*:2]].[CC(C)(C)CC[C@H](N[*:1])C(=O)O]}$$$$V2.0) | 100 nM

Molecular target: 6his-Sortilin (human) (UniProt Q99523)
Test: SPA, displacement of [3H]-neurotensin from 6his-Sortilin
Conditions: not given

Row | Molecule | IC50
12 | (2S)-5,5-Dimethyl-2-((3S)-3-methyl-2-((S)-2-((S)-pyrrolidine-2-carboxamido)propanamido)pentanamido)hexanoic acid (peptide) | 70 nM
13 | (S)-2-((2S,3S)-2-((S)-3-(4-Hydroxyphenyl)-2-((R)-morpholine-2-carboxamido)propanamido)-3-methylpentanamido)-5,5-dimethylhexanoic acid (peptide) | 90 nM
14 | (S)-2-((2S,3S)-2-((S)-3-(4-Hydroxyphenyl)-2-((R)-morpholine-3-carboxamido)propanamido)-3-methylpentanamido)-5,5-dimethylhexanoic acid (peptide) | 100 nM
15 | (S)-2-((2S,3S)-2-((S)-3-(4-Hydroxyphenyl)-2-((R)-piperazine-2-carboxamido)propanamido)-3-methylpentanamido)-5,5-dimethylhexanoic acid (peptide) | 110 nM
16 | (S)-2-((2S,3S)-2-((S)-3-(4-Hydroxyphenyl)-2-((R)-pyrrolidine-3-carboxamido)propanamido)-3-methylpentanamido)-5,5-dimethylhexanoic acid (peptide) | 180 nM
17 | (S)-2-((2S,3S)-2-((S)-3-(4-Hydroxyphenyl)-2-((S)-morpholine-2-carboxamido)propanamido)-3-methylpentanamido)-5,5-dimethylhexanoic acid (peptide) | 70 nM
18 | (S)-2-((2S,3S)-2-((S)-3-(4-Hydroxyphenyl)-2-((S)-piperazine-2-carboxamido)propanamido)-3-methylpentanamido)-5,5-dimethylhexanoic acid (peptide) | 100 nM
19 | (S)-2-((2S,3S)-2-((S)-3-(4-Hydroxyphenyl)-2-((S)-pyrrolidine-2-carboxamido)propanamido)-3-methylpentanamido)-5,5-dimethylhexanoic acid (peptide) | 90 nM
20 | (S)-2-((2S,3S)-2-((S)-3-(4-Hydroxyphenyl)-2-((S)-pyrrolidine-3-carboxamido)propanamido)-3-methylpentanamido)-5,5-dimethylhexanoic acid (peptide) | 150 nM
21 | (S)-2-((S)-2-((S)-3-(4-Hydroxyphenyl)-2-((S)-pyrrolidine-2-carboxamido)propanamido)-3-(1-methyl-1H-imidazol-4-yl)propanamido)-5,5-dimethylhexanoic acid (peptide) | 370 nM
22 | (S)-2-((S)-2-((S)-3-(4-Hydroxyphenyl)-2-((S)-pyrrolidine-2-carboxamido)propanamido)-3-(1-methyl-1H-imidazol-5-yl)propanamido)-5,5-dimethylhexanoic acid.di-formic acid (peptide) | 100 nM
